Where two headings read alike, the source gives them in different places.
Tests used:
cyprids of A. amphitrite = assay: whole plant or invertebrate; assay type: in vivo; conditions: for EC50 / IC50: Amphibalanus amphitrite; for EC50: read-out: EC50 No Metamorphosis; for IC50: read-out: IC50 Settlement; for EC50 values for settlement inhibition of barnacle cyprids (in words): consistently, 24-72 h
Procedure: (§1) Adult A. amphitrite (Cirripedia, Balanidae) were collected from boat docks at Port Mikrolimano and Floisvos, Athens, Greece. Animals were cleaned of epibionts with a small hard brush and meticulously identified as individuals of the species. Adult barnacles were kept in separate aerated glass tanks (20 L) containing 200-μm filtered natural seawater at 27 °C and a 12:12 L:D photoperiod. Tanks were fed with 24-h hatched Artemia sp. (Branchiopoda) nauplii and Tetraselmis suecica (Chlorodendrophyceae) and Skeletonema costatum (Bacillariophyceae) algae each day and seawater was changed on alternate days. Upon stress to induce oviposition (exposure to air for 24 h or immersion in fresh water for 5 h), adults were returned to seawater for larval release. Hatched nauplii were attracted to a point light source, collected and placed into a beaker containing 2 or 3 L of 0.7 μm GF/F (GE Healthcare, Little Chalfont, UK )-filtered natural seawater at a density of approximately 1–2 nauplii/mL with gentle aeration. Nauplii were maintained at 27 °C at a 12:12 L:D photoperiod on a diet of C. gracilis (Bacillariophyceae) provided at a density of 2 × 10^5 cells/mL. Cultured in these conditions, nauplii metamorphosed to cyprids in 5 days. Aliquots of these cyprids were collected with a wide-mouthed Pasteur pipette and aged at 4 °C for 1 day prior to use in settlement assays. Only batches of cyprids that were active and had numerous oil cells, representing energy reserves, were used in settlement assays.
(§2) Assays were conducted by adding 10 cyprids into individual wells of a 24-well polystyrene sterile microplate (Orange Scientific, Braine l’Alleud, Belgium) with 2 mL of artificial sea water (ASW) (25‰) and various concentrations of the chemical compounds as listed in Table 1. These experiments were repeated at least three times with four replicates for each concentration of any given compound (n = 120 cyprids/compound). Stock solutions for all compounds were prepared in methanol (Scharlab, Barcelona, Spain) and serial dilutions were prepared in 0.7 μm (GF/F, GE Healthcare, Little Chalfont, UK), filtered sea water to have a final concentration of 2.5% methanol in each assay solution. Plates were covered and sealed with Parafilm® to avoid evaporation and incubated at 25 °C away from any light source and examined after 24, 48 and 72 h. Each animal was inspected under a stereomicroscope and its condition was recorded. […] Both permanently attached and metamorphosed individuals were counted as settled or juveniles. The remainder were counted as ‘no metamorphosis’, i.e. animals that responded to light touch and were still cyprids at the end of the experiments with no overt signs of metamorphosis.
(§3) For EC50 or IC50 (the concentration that results in 50% stimulation or inhibition relative to the control) calculations in GraphPad Prism v.6, all data were fitted to the curve according to the following models for normalized response: Y = 100/(1 + 10^((X − LogIC50))) or Y = 100/(1 + 10^((LogEC50 − X))) depending on the trend of the curve.

in vivo = assay type: in vivo; conditions: Amphibalanus amphitrite, in vivo, read-out: LC50 Mortality; for LC50 at 24 h: 24 h exposure; for LC50 at 48 h: 48 h exposure; for LC50 at 72 h: 72 h exposure
Procedure: as §1, §2, §3

[1] = Artemia salina toxicity assay; assay type: in vivo; conditions: Artemia salina, in vivo, read-out: EC50 Artemia salina toxicity (mortality)
Procedure: The short-term toxicity assay with A. salina nauplii was used to determine the toxicity of secondary metabolites. Hatching of A. salina nauplii was carried out in ASW (35‰) using 0.5 g of cysts incubated in 500 mL seawater at a temperature of 25 ± 1 °C and lateral illumination (1000 Lux). All cysts were kept in continuous suspension with aeration and 24 h later hatched larvae (instar I) were harvested. Toxicity assays were carried out in three independent experiments in 24-well plates with four replicates of each tested concentration. Ten nauplii per well were transferred with a Pasteur pipette into the 24-well plates and each well was filled with 2 mL of ASW and 50 μL of various concentrations of the tested compounds in methanol. Control treatments received 50 μL of methanol. Plates were incubated in the dark at 25 ± 1 °C for 48 h. Mortality was assessed by recording the number of individuals with no movement of their appendages within 10 seconds and is expressed as the percentage of the total number of assessed individuals for each concentration.
as §3

Chaetoceros gracilis = Chaetoceros gracilis toxicity (phytoplankton growth) assay; assay type: cell-based; conditions: 96 h; for EC50: Chaetoceros neogracilis
Procedure: For phytoplankton growth toxicity assays, the criterion for assay validity was that the cell count of the negative control after 96 h should be ≥2 × 10^5 cells/mL [40].
The centric marine diatom C. gracilis Schütt (strain CCMP1315) was grown photoautotrophically in autoclaved artificial seawater (sea salts; Sigma-Aldrich, St. Louis, MO, USA) (30‰) supplemented with F/2 (half-strength medium f as subsequently modified) in 100 mL medium at 20 °C and with ambient air bubbled in the media. By monitoring cell density, an adjusted culture of >1 × 10^6 cells/mL was used for the toxicity assays. At 96 h, a 0.9 mL aliquot of each treatment was sampled, mixed with 0.1 mL Lugol and cell density was counted. Experiments were assumed valid if cell count in the control after 96 h was […].
as §3

| Structure (SMILES) | EC50 (cyprids of A. amphitrite; 24 h) [µM] | IC50 (cyprids of A. amphitrite; 24 h) [µM] | EC50 (cyprids of A. amphitrite; 48 h) [µM] | IC50 (cyprids of A. amphitrite; 48 h) [µM] | EC50 (cyprids of A. amphitrite; 72 h) [µM] | IC50 (cyprids of A. amphitrite; 72 h) [µM] | LC50 at 24 h (in vivo) [µM] | toxic effect on cyprids (cyprids of A. amphitrite; in vivo) | LC50 at 48 h (in vivo) [µM] | LC50 at 72 h (in vivo) [µM] | EC50 values for settlement inhibition of barnacle cyprids (in words) (cyprids of A. amphitrite) | LC50 at 24 h [1] [µM] | LC50 at 48 h [1] [µM] | C. gracilis exclusion criterion (EC50 compared with bromosphaerol) (Chaetoceros gracilis) | EC50 (Chaetoceros gracilis) [µM] |
| --- | --- | --- | --- | --- | --- | --- | --- | --- | --- | --- | --- | --- | --- | --- | --- |
| Cc1cc2c(cc1Br)C1(C)CCC(C)(O2)C1C (stereo not shown) [Compound 5, filiformin] | 27 | 2.26 | 0.001 | 5.45 | 0.287 | 12.9 | 33.1 | – | – | – | – | – | – | – | – |
| Cc1cc(O)c(C2(C)CCC3CC32C)cc1Br (stereo not shown) [Compound 6, laurinterol] | 28.3 | 2.42 | 10.8 | 2.22 | 15 | 1.27 | 12.3 | obvious toxic effect on cyprids | 5.29 | 2.31 | – | – | – | – | – |
| C=CC(C)(O)CCC1C(=C)CCC(Br)C1(C)CCC(Br)C(C)(C)O (stereo not shown) [Compound 17] | 0.057 | 0.634 | 0.921 | 0.806 | 101 | 1.19 | – | – | – | > 1000 | – | – | – | – | – |
| C=C1CC[C@@](C)(c2cc(Br)c(C)cc2OC(C)=O)[C@H]1C [Compound 3, allolaurinterol acetate] | – | 1.04 | 80.9 | 1.8 | 109 | 2 | 66.1 | – | 382 | 269 | – | – | – | – | – |
| C#CC=CCC1OC(C(Br)CC)CC(OC(C)=O)C(Cl)CC1Cl (stereo not shown) [Compound 22, laurencienyne] | 0.008 | 0.025 | 0.01 | 0.043 | 58.7 | 0.055 | 6.86 | – | 10.1 | 71.3 | sub-micromolar | 3.07 | 9.63 | did not pass this criterion | 2.15 |
| CC(=O)OCC(Br)C1(C)CC=C2C(C1)C(O)CC1C2(C)CC(OC(C)=O)C2CC21C (stereo not shown) [Compound 15, deoxyparguerol 16-acetate] | 63.6 | 2.84 | 55.1 | 7.02 | 73 | 5.37 | 31.7 | – | 33.4 | 34.6 | – | – | – | – | – |
| CC1C(Br)C(=O)C(C)C23CCC2(C)C(Br)CC13C (stereo not shown) [Compound 11, perforatone] | 0.003 | 0.003 | 0.002 | 0.002 | – | 0.002 | 56.1 | – | 38.4 | – | sub-micromolar | 10.1 | 1.57 | did not pass this criterion | 4.52 |
| CC(C)[C@H]1CC(C)(C)[C@@H](O)C2=C1CC[C@H]2C [Compound 7, epibrasilenol] | 25.4 | 17.5 | 21.7 | 17.7 | 53.2 | 10.3 | 24.8 | – | 23.4 | 25 | – | – | – | – | – |

From publication PMC6891695, “Evaluation of Antifouling Potential and Ecotoxicity of Secondary Metabolites Derived from Red Algae of the Genus Laurencia” (Marine Drugs, 2019)
